PubChem BioAssay (NCI)
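Each compound was tested at five concentrations against cells in 96-well plates for 48 hours. GI50 marks 50% less growth. TGI is the concentration that stops growth completely.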

Experiments:
Experiment in all cases: NCI-60 cell line screen, 48 h; in the data active means GI50 below about 0.43 µM; inactive means the rest
NCI-H226 lung = tested on: NCI-H226 lung
NCI/ADR-RES ovarian = tested on: NCI/ADR-RES ovarian
MDA-N = tested on: MDA-N
HS 578T breast = tested on: HS 578T breast
DU-145 prostate = tested on: DU-145 prostate
PC-3 prostate = tested on: PC-3 prostate
SK-MEL-2 melanoma = tested on: SK-MEL-2 melanoma
CCRF-CEM leukemia = tested on: CCRF-CEM leukemia
SK-MEL-28 melanoma = tested on: SK-MEL-28 melanoma

Cc1nc(-c2cc3ccccc3oc2=O)cs1
65.8 µM: TGI (HS 578T breast)
> 100 µM: TGI (NCI-H226 lung) | TGI (NCI/ADR-RES ovarian) | TGI (MDA-N) | TGI (DU-145 prostate) | TGI (PC-3 prostate) | TGI (SK-MEL-2 melanoma) | TGI (CCRF-CEM leukemia) | TGI (SK-MEL-28 melanoma)

NCCSCCC(=O)O
> 100 µM: TGI (NCI-H226 lung) | TGI (NCI/ADR-RES ovarian) | TGI (MDA-N) | TGI (HS 578T breast) | TGI (DU-145 prostate) | TGI (PC-3 prostate) | TGI (SK-MEL-2 melanoma) | TGI (CCRF-CEM leukemia)
> 71.8 µM: TGI (SK-MEL-28 melanoma)

O=C(N=Nc1ccccc1Cl)NNc1ccccc1Cl
67.4 µM: TGI (SK-MEL-2 melanoma)
> 100 µM: TGI (NCI-H226 lung) | TGI (MDA-N) | TGI (DU-145 prostate) | TGI (PC-3 prostate) | TGI (SK-MEL-28 melanoma)
53.6 µM: TGI (CCRF-CEM leukemia)

O=C(OCc1ccccc1)N1CCNCCNCCN(C(=O)OCc2ccccc2)CCNCC1
32.9 µM: TGI (SK-MEL-2 melanoma)
31.3 µM: TGI (MDA-N)
29.1 µM: TGI (SK-MEL-28 melanoma)
> 100 µM: TGI (NCI-H226 lung) | TGI (NCI/ADR-RES ovarian) | TGI (DU-145 prostate) | TGI (PC-3 prostate)
44 µM: TGI (HS 578T breast)
65.9 µM: TGI (CCRF-CEM leukemia)

Clc1cc(Cl)ncn1
> 100 µM: TGI (NCI-H226 lung) | TGI (NCI/ADR-RES ovarian) | TGI (MDA-N) | TGI (HS 578T breast) | TGI (DU-145 prostate) | TGI (PC-3 prostate) | TGI (CCRF-CEM leukemia) | TGI (SK-MEL-28 melanoma)

Cc1nc(Nc2ccccc2Cl)sc1C(=O)CC(=O)C(N)=O
> 100 µM: TGI (NCI-H226 lung) | TGI (NCI/ADR-RES ovarian) | TGI (MDA-N) | TGI (HS 578T breast) | TGI (DU-145 prostate) | TGI (PC-3 prostate) | TGI (SK-MEL-2 melanoma) | TGI (CCRF-CEM leukemia)

C#CCOC(=O)c1ccc(OC(C)=O)cc1
> 100 µM: TGI (NCI-H226 lung) | TGI (NCI/ADR-RES ovarian) | TGI (MDA-N) | TGI (HS 578T breast) | TGI (DU-145 prostate) | TGI (PC-3 prostate) | TGI (SK-MEL-2 melanoma) | TGI (CCRF-CEM leukemia)

Cc1ccccc1NC(=O)CC(=O)NNC(Sc1ccccc1)c1cc(N=Nc2ccc(Br)cc2)ccc1O (stereo not given)
> 10 µM: TGI (NCI-H226 lung) | TGI (MDA-N) | TGI (HS 578T breast) | TGI (DU-145 prostate) | TGI (PC-3 prostate) | TGI (SK-MEL-2 melanoma) | TGI (CCRF-CEM leukemia) | TGI (SK-MEL-28 melanoma)
9.08 µM: TGI (NCI/ADR-RES ovarian)

O=c1[nH]nc(Cc2ccc(Cl)cc2)n1/N=C/c1ccc([N+](=O)[O-])o1
12.4 µM: TGI (SK-MEL-2 melanoma)
43.3 µM: TGI (NCI-H226 lung)
> 36.7 µM: TGI (DU-145 prostate)
> 35.5 µM: TGI (NCI/ADR-RES ovarian)
8.24 µM: TGI (HS 578T breast)
> 21.9 µM: TGI (SK-MEL-28 melanoma)
> 75.1 µM: TGI (PC-3 prostate)
> 37 µM: TGI (CCRF-CEM leukemia)

NC(=O)CN1C=CCC(C(N)=O)=C1
> 100 µM: TGI (NCI-H226 lung) | TGI (NCI/ADR-RES ovarian) | TGI (MDA-N) | TGI (DU-145 prostate) | TGI (PC-3 prostate) | TGI (SK-MEL-2 melanoma) | TGI (CCRF-CEM leukemia)

COc1ccccc1NC(=O)CC(=O)NN
> 100 µM: TGI (NCI-H226 lung) | TGI (NCI/ADR-RES ovarian) | TGI (MDA-N) | TGI (HS 578T breast) | TGI (DU-145 prostate) | TGI (PC-3 prostate) | TGI (SK-MEL-2 melanoma) | TGI (CCRF-CEM leukemia) | TGI (SK-MEL-28 melanoma)

COc1ccccc1C1C(C#N)=C(N)Oc2n[nH]c(C)c21 (stereo not given)
> 100 µM: TGI (NCI-H226 lung) | TGI (NCI/ADR-RES ovarian) | TGI (HS 578T breast) | TGI (DU-145 prostate) | TGI (SK-MEL-2 melanoma) | TGI (CCRF-CEM leukemia) | TGI (SK-MEL-28 melanoma)
inactive: GI50 (NCI-H226 lung) 74.5 µM | GI50 (NCI/ADR-RES ovarian) > 100 µM | GI50 (HS 578T breast) 27.8 µM | GI50 (DU-145 prostate) > 100 µM | GI50 (SK-MEL-2 melanoma) > 100 µM | GI50 (CCRF-CEM leukemia) 22.8 µM | GI50 (SK-MEL-28 melanoma) > 100 µM

CCOC(=O)CCC(C(=O)OCC)n1nnc2cc(Nc3c(C)[n+]([O-])c4cc(F)c(OCC)cc4[n+]3[O-])ccc21 (stereo not given)
> 100 µM: TGI (NCI-H226 lung) | TGI (NCI/ADR-RES ovarian) | TGI (MDA-N) | TGI (HS 578T breast) | TGI (DU-145 prostate) | TGI (PC-3 prostate) | TGI (SK-MEL-2 melanoma) | TGI (CCRF-CEM leukemia)

Cc1c([C@H](C)[C@@H]2NC[C@@H](C)C[C@H]2O)ccc2c1C[C@H]1[C@H]2CC=C2C[C@@H](O)CC[C@@]21C
37.5 µM: TGI (SK-MEL-28 melanoma)
32.1 µM: TGI (PC-3 prostate)
38.1 µM: TGI (NCI-H226 lung)
38.4 µM: TGI (CCRF-CEM leukemia)
31 µM: TGI (MDA-N)
> 100 µM: TGI (NCI/ADR-RES ovarian) | TGI (DU-145 prostate)
66.6 µM: TGI (HS 578T breast)

Cc1c2cccc-2ccc2c3ccccc3n(C(=O)c3ccc(Cl)cc3)c12
> 100 µM: TGI (NCI-H226 lung) | TGI (NCI/ADR-RES ovarian) | TGI (HS 578T breast) | TGI (DU-145 prostate) | TGI (PC-3 prostate) | TGI (SK-MEL-2 melanoma) | TGI (CCRF-CEM leukemia) | TGI (SK-MEL-28 melanoma)

COc1cc(N(CCC#N)CCC#N)ccc1/C=N\NC(=O)c1ccc(C)cc1
31.1 µM: TGI (PC-3 prostate)
> 100 µM: TGI (NCI-H226 lung) | TGI (NCI/ADR-RES ovarian) | TGI (MDA-N) | TGI (HS 578T breast) | TGI (DU-145 prostate) | TGI (CCRF-CEM leukemia) | TGI (SK-MEL-28 melanoma)
32.6 µM: TGI (SK-MEL-2 melanoma)

COc1cc2nc(-c3cccs3)nc(Nc3cccc(Cl)c3)c2cc1OC
56.8 µM: TGI (PC-3 prostate)
> 100 µM: TGI (NCI-H226 lung) | TGI (NCI/ADR-RES ovarian) | TGI (HS 578T breast) | TGI (DU-145 prostate) | TGI (SK-MEL-2 melanoma) | TGI (CCRF-CEM leukemia) | TGI (SK-MEL-28 melanoma)

CC1(C)C=C(/C=N/Nc2ccccc2)C(C#N)=C(O)C1(C#N)C#N
> 100 µM: TGI (NCI-H226 lung) | TGI (NCI/ADR-RES ovarian) | TGI (MDA-N) | TGI (HS 578T breast) | TGI (DU-145 prostate) | TGI (PC-3 prostate) | TGI (CCRF-CEM leukemia) | TGI (SK-MEL-28 melanoma)

CCCCCCCCC#CCCCCCCCCCC[C@@H]1C(=O)O[C@H](C)[C@@H]1O (tested in a mixture with another compound)
79.6 µM: TGI (MDA-N)
46.4 µM: TGI (SK-MEL-2 melanoma)
> 100 µM: TGI (NCI-H226 lung) | TGI (SK-MEL-28 melanoma)
46.9 µM: TGI (PC-3 prostate)
23.8 µM: TGI (NCI/ADR-RES ovarian)

Cc1ccc(S(=O)(=O)NC(=O)C2=C3SCCN3C(=O)N(S(=O)(=O)c3ccc(C)cc3)C2c2ccccc2)cc1 (stereo not given)
> 100 µM: TGI (NCI-H226 lung) | TGI (NCI/ADR-RES ovarian) | TGI (HS 578T breast) | TGI (DU-145 prostate) | TGI (PC-3 prostate) | TGI (SK-MEL-2 melanoma) | TGI (SK-MEL-28 melanoma)
60.5 µM: TGI (CCRF-CEM leukemia)

N#Cc1c(N)nc2c3c1NC(=O)C(C(N)=O)C3c1ccccc1O2 (stereo not given)
> 100 µM: TGI (NCI-H226 lung) | TGI (NCI/ADR-RES ovarian) | TGI (MDA-N) | TGI (DU-145 prostate) | TGI (PC-3 prostate) | TGI (SK-MEL-2 melanoma) | TGI (CCRF-CEM leukemia) | TGI (SK-MEL-28 melanoma)

CC(=O)OCC1OC(n2c(C)c(C)c(C)c(C#N)c2=S)C(OC(C)=O)C(OC(C)=O)C1OC(C)=O (stereo not given)
> 100 µM: TGI (NCI-H226 lung) | TGI (NCI/ADR-RES ovarian) | TGI (MDA-N) | TGI (DU-145 prostate) | TGI (PC-3 prostate) | TGI (CCRF-CEM leukemia) | TGI (SK-MEL-28 melanoma)
78.2 µM: TGI (SK-MEL-2 melanoma)

Cc1ncc(COP(=O)(O)O)c(/C=C2\SC(=S)NC2=O)c1O
> 100 µM: TGI (NCI-H226 lung) | TGI (NCI/ADR-RES ovarian) | TGI (MDA-N) | TGI (DU-145 prostate) | TGI (PC-3 prostate) | TGI (SK-MEL-2 melanoma) | TGI (SK-MEL-28 melanoma)

Clc1ccc(C2=CCN3CC=C(c4ccc(Cl)cc4)C23)cc1
43.2 µM: TGI (NCI-H226 lung)
52 µM: TGI (CCRF-CEM leukemia)
29.6 µM: TGI (SK-MEL-2 melanoma)
28 µM: TGI (SK-MEL-28 melanoma)
29.2 µM: TGI (DU-145 prostate)
22.7 µM: TGI (MDA-N)
26.9 µM: TGI (NCI/ADR-RES ovarian)
30.3 µM: TGI (HS 578T breast)

COc1ccc2cc(C(C)C(=O)N3C(=O)OCC3(C)C)ccc2c1 (stereo not given)
> 100 µM: TGI (NCI-H226 lung) | TGI (NCI/ADR-RES ovarian) | TGI (MDA-N) | TGI (DU-145 prostate) | TGI (PC-3 prostate) | TGI (SK-MEL-28 melanoma)
